Key:
ABUTH [1] = experiment: Pre-emergence herbicidal action against ABUTH; assay type: in vivo, Abutilon theophrasti; conditions: for pest or weed control at 80 g/ha / pest or weed control at 20 g/ha: Abutilon theophrasti, 504 h; for pest or weed control at 20 g/ha: read-out: Pre-emergence action against ABUTH (herbicidal activity in percent)
How it was run: (§1)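 Pre-emergence soil-surface spray of formulated compound (WP or EC; 600 to 800 l/ha; 0.2% wetting agent) over seeds sown in sandy loam. After 3 weeks under greenhouse conditions, damage is estimated visually in percent against untreated plants.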

ALOMY [2] = experiment: Pre-emergence herbicidal action against ALOMY; assay type: in vivo, Alopecurus myosuroides; conditions: pre-emergence
How it was run: as §1

AMARE [3] = experiment: Pre-emergence herbicidal action against AMARE; assay type: in vivo, Amaranthus retroflexus; conditions: for pest or weed control at 20 g/ha / pest or weed control at 80 g/ha: Amaranthus retroflexus, 504 h, scored visually after 3 weeks vs untreated controls, 100% = plants have died, 0% = like control plants
How it was run: as §1

AVEFA = experiment: Pre-emergence herbicidal action against AVEFA; assay type: in vivo, Avena fatua; conditions: for pest or weed control at 80 g/ha: Avena fatua, 504 h
How it was run: as §1

ECHCG [4] = experiment: Pre-emergence herbicidal action against ECHCG; assay type: in vivo, Echinochloa crus-galli; conditions: for pest or weed control at 80 g/ha: Echinochloa crus-galli, 504 h
How it was run: as §1

LOLRI = experiment: Pre-emergence herbicidal action against LOLRI; assay type: in vivo, Lolium rigidum; conditions: for pest or weed control at 80 g/ha: Lolium rigidum, 504 h
From the text: Seeds of monocotyledonous and dicotyledonous weed plants and crop plants are laid out in sandy loam soil in wood-fiber pots and covered with soil. The compounds of the invention, formulated in the form of wettable powders (WP) or as emulsion concentrates (EC), are then applied to the surface of the covering soil in the form of an aqueous suspension or emulsion at a water application rate equivalent to 600 to 800 l/ha, with addition of 0.2% wetting agent. After the treatment, the pots are placed in a greenhouse and kept under good growth conditions for the trial plants. The damage to the test plants is scored visually after a test period of 3 weeks by comparison with untreated controls (herbicidal activity in percent (%): 100% activity=the plants have died, 0% activity=like control plants). […] The tables below illustrate, in an illustrative manner, the post-emergence herbicidal action of the compounds of the invention, the herbicidal activity being stated in percent.

MATIN [5] = experiment: Pre-emergence herbicidal action against MATIN; assay type: in vivo, Matricaria inodora; conditions: for pest or weed control at 20 g/ha / pest or weed control at 80 g/ha: Tripleurospermum inodorum, 504 h; for pest or weed control at 20 g/ha: dosage 20 g/ha
How it was run: as §1

PHBPU [6] = experiment: Pre-emergence herbicidal action against PHBPU; assay type: in vivo, Pharbitis purpurea; conditions: dosage 80 g/ha; for pest or weed control at 80 g/ha: Ipomoea purpurea, 504 h
How it was run: as §1

VERPE = experiment: Pre-emergence herbicidal action against VERPE; assay type: in vivo, Veronica persica; conditions: dosage 80 g/ha; for pest or weed control at 80 g/ha: Veronica persica, 504 h
How it was run: as §1

VIOTR = experiment: Pre-emergence herbicidal action against VIOTR; assay type: in vivo, Viola tricolor; conditions: Viola tricolor, 504 h; for pest or weed control at 80 g/ha: dosage 80 g/ha
How it was run: as §1

ABUTH [7] = experiment: Post-emergence herbicidal action against ABUTH; assay type: in vivo, Abutilon theophrasti; conditions: visual assessment about 3 weeks after treatment vs untreated controls
How it was run: (§2)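 Greenhouse plants in sandy loam were sprayed at the one-leaf stage, 2 to 3 weeks after sowing, with WP or EC formulations as aqueous suspension or emulsion (600 to 800 l/ha water, 0.2% wetting agent). Visual damage was scored about 3 weeks later versus untreated controls, 0% = like control, 100% = dead.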

ALOMY [8] = experiment: Post-emergence herbicidal action against ALOMY; assay type: in vivo, Alopecurus myosuroides; conditions: Alopecurus myosuroides, 504 h, visual assessment about 3 weeks after treatment vs untreated controls; for pest or weed control at 5 g/ha: dosage 5 g/ha; for pest or weed control at 20 g/ha: dosage 20 g/ha
How it was run: as §2

AMARE [9] = experiment: Post-emergence herbicidal action against AMARE; assay type: in vivo, Amaranthus retroflexus; conditions: 20 g/ha, visual assessment about 3 weeks after treatment, 100% = plants have died, 0% = like control plants; for pest or weed control at 20 g/ha: Amaranthus retroflexus, 504 h
How it was run: as §2

ECHCG [10] = experiment: Post-emergence herbicidal action against ECHCG; assay type: in vivo, Echinochloa crus-galli
How it was run: as §2

DIGSA [11] = experiment: Pre-emergence herbicidal action against DIGSA; assay type: in vivo, Digitaria sanguinalis
How it was run: as §1

MATIN [12] = experiment: Post-emergence herbicidal action against MATIN; assay type: in vivo, Matricaria inodora
How it was run: as §2

PHBPU [13] = experiment: Post-emergence herbicidal action against PHBPU; assay type: in vivo, Pharbitis purpurea
How it was run: as §2

DIGSA [14] = experiment: Post-emergence herbicidal action against DIGSA; assay type: in vivo, Digitaria sanguinalis; conditions: 20 g/ha
How it was run: as §2

SETVI [15] = experiment: Pre-emergence herbicidal action against SETVI; assay type: in vivo, Setaria viridis; conditions: Setaria viridis, 504 h, dosage 80 g/ha
How it was run: as §1

SETVI [16] = experiment: Post-emergence herbicidal action against SETVI; assay type: in vivo, Setaria viridis; conditions: Setaria viridis, 504 h, dosage 20 g/ha
How it was run: as §2

[17] = 80 g/ha, scored visually after 3 weeks vs untreated controls (100% = plants have died, 0% = like control plants)
[18] = dosage 20 g/ha, scored visually after 3 weeks vs untreated controls, 100% = plants have died, 0% = like control plants
[19] = Alopecurus myosuroides, 504 h, 80 g/ha, scored visually after 3 weeks vs untreated controls (100% = plants have died, 0% = like control plants)
[20] = Echinochloa crus-galli, 504 h, dosage 20 g/ha

With `CCCNC(=O)c1c(Br)ccc(C(=O)Nc2nnnn2CC)c1Cl` [Example 2-184] the pest or weed control at 80 g/ha (ABUTH [1]; [17]) was 100%, the pest or weed control at 20 g/ha (ABUTH [1]; [18]) was 100% and the pest or weed control at 80 g/ha (ALOMY [2]; [19]) was 100%. The pest or weed control at 20 g/ha (ALOMY [2]; Alopecurus myosuroides, 504 h, 20 g/ha, scored visually after 3 weeks, 100% = plants have died, 0% = like control plants) was 90%, the pest or weed control at 20 g/ha (AMARE [3]) was 100% and the pest or weed control at 80 g/ha (AMARE [3]; 80 g/ha) was 100%. The pest or weed control at 80 g/ha (AVEFA; 80 g/ha, pre-emergence) was 90%, the pest or weed control at 80 g/ha (ECHCG [4]; 80 g/ha) was 100% and the pest or weed control at 80 g/ha (LOLRI; 80 g/ha) was 80%. For the same compound, the pest or weed control at 20 g/ha (MATIN [5]) was 90%, the pest or weed control at 80 g/ha (MATIN [5]; dosage 80 g/ha) was 100% and the pest or weed control at 80 g/ha (PHBPU [6]) was 90%. It also gave a pest or weed control at 80 g/ha (VERPE) of 100%, a pest or weed control at 80 g/ha (VIOTR) of 100% and a pest or weed control at 5 g/ha (ABUTH [7]; Abutilon theophrasti, 504 h, dosage 5 g/ha) of 90%. The pest or weed control at 20 g/ha (ABUTH [7]; Abutilon theophrasti, 504 h, dosage 20 g/ha) was 90%, the pest or weed control at 5 g/ha (ALOMY [8]) was 80% and the pest or weed control at 20 g/ha (ALOMY [8]) was 100%. For the same compound, the pest or weed control at 20 g/ha (AMARE [9]) was 100% and the pest or weed control at 20 g/ha (ECHCG [10]; [20]) was 100%.
With `Cn1nnnc1NC(=O)c1ccc(C(F)F)c(C(=O)NC2CCC2)c1Cl` [Example 1-164] the “Pre-emergence action against ABUTH (herbicidal activity)” value (ABUTH [1]; [17]) was 80%, the “Pre-emergence action against ABUTH (herbicidal activity in percent)” value (ABUTH [1]; [18]) was 80% and the “Pre-emergence action against ALOMY (herbicidal activity)” value (ALOMY [2]; [17]) was 100%. For the same compound, the “Pre-emergence action against AMARE in %” value (AMARE [3]; [17]) was 100%, the “Pre-emergence action against AVEFA” value (AVEFA; 20 g/ha, scored visually after 3 weeks, 100% = plants have died, 0% = like control plants) was 100% and the “Pre-emergence action against AVEFA in %” value (AVEFA; 80 g/ha, pre-emergence) was 100%. The “Pre-emergence action against ECHCG in %” value (ECHCG [4]; 20 g/ha) was 100%, the “Pre-emergence action against ECHCG in %” value (ECHCG [4]; 80 g/ha) was 100% and the “Pre-emergence action against LOLRI in %” value (LOLRI; 20 g/ha) was 100%. The “Pre-emergence action against LOLRI in %” value (LOLRI; 80 g/ha) was 100%, the “Pre-emergence action against MATIN in %” value (MATIN [5]; dosage 80 g/ha) was 100% and the “Pre-emergence action against PHBPU in %” value (PHBPU [6]) was 100%. The “Pre-emergence action against VERPE in %” value (VERPE) was 90%, the “Pre-emergence action against DIGSA in %” value (DIGSA [11]; dosage 80 g/ha) was 80% and the “Post-emergence action against ABUTH in %” value (ABUTH [7]; dosage 5 g/ha) was 80%. For the same compound, the “Post-emergence action against ABUTH in %” value (ABUTH [7]; dosage 20 g/ha) was 80%, the “Post-emergence action at 20 g/ha against AMARE in %” value (AMARE [9]) was 90% and the “Post-emergence action against ECHCG in %” value (ECHCG [10]; dosage 5 g/ha) was 80%. The “Post-emergence action against ECHCG in %” value (ECHCG [10]; dosage 20 g/ha) was 90%, the “Post-emergence action against MATIN in %” value (MATIN [12]; dosage 5 g/ha) was 80% and the “Post-emergence action against MATIN in %” value (MATIN [12]; dosage 20 g/ha) was 80%. For the same compound, the “Post-emergence action against PHBPU in %” value (PHBPU [13]; dosage 5 g/ha) was 90%, the “Post-emergence action against PHBPU in %” value (PHBPU [13]; dosage 20 g/ha) was 90% and the “Post-emergence action against DIGSA” value (DIGSA [14]) was 80%.
`CCCNC(=O)c1c(C(F)(F)F)ccc(C(=O)Nc2nnnn2C)c1Cl` [Example 1-136] showed a pest or weed control at 80 g/ha (ABUTH [1]; [17]) of 100%, a pest or weed control at 20 g/ha (ABUTH [1]; [18]) of 90% and a pest or weed control at 80 g/ha (ALOMY [2]; [19]) of 90%. For the same compound, the pest or weed control at 20 g/ha (AMARE [3]) was 100%, the pest or weed control at 80 g/ha (AMARE [3]; 80 g/ha) was 100% and the pest or weed control at 80 g/ha (AVEFA; 80 g/ha, pre-emergence) was 80%. The pest or weed control at 80 g/ha (ECHCG [4]; 80 g/ha) was 90%, the pest or weed control at 80 g/ha (LOLRI; 80 g/ha) was 90% and the pest or weed control at 20 g/ha (MATIN [5]) was 90%. The pest or weed control at 80 g/ha (MATIN [5]; dosage 80 g/ha) was 100%, the pest or weed control at 80 g/ha (PHBPU [6]) was 80% and the pest or weed control at 80 g/ha (SETVI [15]) was 80%. It also gave a pest or weed control at 80 g/ha (VERPE) of 90%, a pest or weed control at 20 g/ha (VIOTR; dosage 20 g/ha) of 90% and a pest or weed control at 80 g/ha (VIOTR) of 100%. It also gave a pest or weed control at 20 g/ha (DIGSA [11]; Digitaria sanguinalis, 504 h, dosage 20 g/ha) of 100%, a pest or weed control at 80 g/ha (DIGSA [11]; Digitaria sanguinalis, 504 h, dosage 80 g/ha) of 100% and a pest or weed control at 5 g/ha (ALOMY [8]) of 80%. It also gave a pest or weed control at 20 g/ha (ALOMY [8]) of 90%, a pest or weed control at 20 g/ha (AMARE [9]) of 90% and a pest or weed control at 5 g/ha (ECHCG [10]; Echinochloa crus-galli, 504 h, dosage 5 g/ha) of 80%. For the same compound, the pest or weed control at 20 g/ha (ECHCG [10]; [20]) was 90%, the pest or weed control at 20 g/ha (MATIN [12]; Tripleurospermum inodorum, 504 h, dosage 20 g/ha) was 80% and the pest or weed control at 20 g/ha (SETVI [16]) was 80%.

From patent US12655116B2, “Substituted isophthalic acid diamides” (Bayer Aktiengesellschaft, priority 2020, dated 2026)
